Test results from patent US8835644B2, “Broad spectrum benzothiophene-nitrothiazolide and other antimicrobials” (University of Virginia Patent Foundation, priority 2009, dated 2014).
Values after ≈ are worked out from the molar mass of the structure shown. Where two headings read alike, the source gives them in different places. Each block holds one compound with its values, some of them ahead of it.

How the values were obtained:
E. coli biofilm = E. coli biofilm assay (activity tables); assay type: cell-based, Escherichia coli
Description: A quantitative biofilm assay was used to determine the effect of NTZ on biofilm formation (41). Strain 042 was grown overnight at 37° C. with shaking and inoculated 1:100 in 200 μl culture medium in Costar 96-well, flat-bottom, polystyrene microtiter plates containing appropriate concentrations of NTZ. Plates were incubated statically at 37° C. in a humidified incubator. At 24 h, bacterial growth was measured by either transferring […] aliquots to another microtiter plate to determine turbidity or by diluting 100 μl aliquots 1:100 in 9.9 ml PBS for quantitative plate counts on LB medium. Bacterial counts in triplicate are reported as cfu/ml. Biofilm was visualized following staining with 0.5% crystal violet (41) and the absorbance was read at 570 nm using a microplate reader (Molecular Dynamics). All experiments were in triplicate and reported as mean and standard deviation.
(§1) A standard broth dilution protocol was used in 96 well microplates containing a standard dilution of the microorganism to be tested in 100 microliters of the appropriate medium. Appropriate medium: E. coli, LB medium; Staphylococcus strains, Trypticase Soy; and for H. pylori and C. jejuni, Brain Heart Infusion. The compounds to be tested were set at 32 μg/ml in 200 microliters in well one and then serially diluted to provide a range from 32 to 0.06. The wells were scored visually at 24 h. The well where there was no growth was recorded as the MIC. Clostridium difficile was tested by agar diffusion and disk diffusion (Kirby Bower) methods under anaerobic conditions on Wilkins Chalgrin agar. In these assays, zone of inhibited growth was measured and compared by relative ratio to the zone recorded for NTZ.
(§2) Representative compounds of the invention were tested in a series of assays against a series of organisms as described above. […] The organisms tested include, C. difficile, H. pylori, C. jejuni, MRSA, S. epidermidis, and E. coli. S. epidermidis and E. coli were tested in the plank and biofilm assay. A disk diffusion assay was also used for C. difficile. Direct PFOR enzyme assays were also performed. All analogues and derivatives were not tested on every organism in every type of assay (the “-” in each table means that it was not tested).

E. coli = experiment: MIC testing by broth dilution, E. coli plank; assay type: cell-based, Escherichia coli
Outline: (§3)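 Twofold broth microdilution from 32 μg/ml down to 0.06, in LB for E. coli, Trypticase Soy for S. epidermidis (planktonic) and Brain Heart Infusion for C. jejuni. C. difficile: anaerobic disk diffusion on Wilkins Chalgrin agar, inhibition zone expressed as a ratio to the NTZ zone.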

MRSA = experiment: MIC testing by broth dilution, MRSA; assay type: cell-based, Staphylococcus aureus
Outline: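 Values are broth-dilution MICs, defined as the well showing no growth on visual reading after 24 h; the tested range was 32 to 0.06 μg/ml, in organism-specific media (LB, Trypticase Soy, Brain Heart Infusion). The C. difficile entries come instead from anaerobic Kirby-Bauer disk zones, normalised to NTZ.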

C. difficile = experiment: Disk diffusion (Kirby Bower), C. difficile; assay type: cell-based, Clostridium difficile; conditions: Nitazoxanide = 100
Description: as §1, §2

C. jejuni = experiment: MIC testing by broth dilution, C. jejuni; assay type: cell-based, Campylobacter jejuni
Outline: as §3

H. pylori = experiment: MIC testing by broth dilution, H. pylori; assay type: cell-based, Helicobacter pylori
Outline: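 Broth dilution MIC determination against H. pylori: a standard inoculum in 100 microliters of Brain Heart Infusion medium was placed in 96 well microplates. Test compounds began at 32 μg/ml in 200 microliters in well one and were serially diluted over a 32 to 0.06 range. After 24 h, plates were scored by eye and the first well without growth was recorded as the MIC.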

S. epidermidis = experiment: MIC testing by broth dilution, S. epidermidis plank; assay type: cell-based, Staphylococcus epidermidis
Outline: as §3

S. epidermidis biofilm = S. epidermidis biofilm assay (activity tables); assay type: cell-based, Staphylococcus epidermidis
Description: Staphylococcal strains were cultured overnight in TSB at 37° C. with shaking, diluted in fresh medium to an OD600 of 0.01 and 200 W was dispensed into sterile flat bottom polystyrene 96 well microtiter plates (Costar 3596, Corning Inc.). […] Each compound and dilution was tested in triplicate. The plates were incubated overnight at 37° C. in a humidified incubator, without shaking and both growth and biofilm accumulation were determined at 16 h.
Following recording of turbidities, the culture medium was aspirated and the wells were washed three times with distilled water, blotted on paper towels, and fixed with 75% ethanol for 10 minutes.
To visualize biofilm material, 0.5% crystal violet was added to each well and after 5 minutes was removed and the wells washed three times with distilled water. Plates were read using a microplate reader at a wavelength of 570 nm. The dye was then extracted by adding 200 W of 95% ethanol, and the absorbance was read again at 570 nm. All assays were performed in triplicate and the mean and standard deviation determined. […]
as §2

[1] = Escherichia coli; biofilm; Furan analogues table; read-out: MIC E. coli Biofilm
[2] = Escherichia coli, planktonic, Furan analogues table, read-out: MIC E. coli Plank
[3] = Staphylococcus aureus, MRSA, Furan analogues table, read-out: MIC MRSA
[4] = Campylobacter jejuni, Furan analogues table, read-out: MIC C. jejuni
[5] = Helicobacter pylori, Furan analogues table, read-out: MIC H. pylori
[6] = Staphylococcus epidermidis, planktonic, Furan analogues table, read-out: MIC S. epidermidis Plank

- MIC (E. coli biofilm; [1]): 90.8 µM (≈ 34.8 µg/mL)
- MIC (E. coli; [2]): 90.8 µM (≈ 34.8 µg/mL)
- MIC (MRSA; [3]): 2.8 µM (≈ 1.07 µg/mL)
- MIC (C. jejuni; [4]): 8.5 µM (≈ 3.26 µg/mL)
- MIC (H. pylori; [5]): 1.1 µM (≈ 0.422 µg/mL)
- MIC (S. epidermidis; [6]): 5.7 µM (≈ 2.18 µg/mL)
- MIC S. epidermidis Biofilm (S. epidermidis biofilm; Furan analogues table): 5.7 µM (≈ 2.18 µg/mL)
Compound: O=C(Nc1ncc([N+](=O)[O-])s1)c1ccc(-c2ccccc2C(F)(F)F)o1 [VPC161196, N-(5-Nitrothiazol-2-yl)-5-(2-(trifluoromethyl)phenyl)furan-2-carboxamide]
- Disk Diff (%) C. difficile (C. difficile; Furan analogues table): 70.5 ± 0.5%

- MIC (E. coli biofilm; biofilm; Furan analogues table; read-out: MIC E. coli Biofilm): 90.8 µM (≈ 34.8 µg/mL)
- MIC (E. coli; planktonic, Furan analogues table, read-out: MIC E. coli Plank): 90.8 µM (≈ 34.8 µg/mL)
- MIC (MRSA; Furan analogues table, read-out: MIC MRSA): 11.4 µM (≈ 4.37 µg/mL)
- MIC (C. jejuni; Furan analogues table, read-out: MIC C. jejuni): 8.5 µM (≈ 3.26 µg/mL)
- MIC (H. pylori; Furan analogues table, read-out: MIC H. pylori): 1.1 µM (≈ 0.422 µg/mL)
- MIC (S. epidermidis; planktonic, Furan analogues table, read-out: MIC S. epidermidis Plank): 5.7 µM (≈ 2.18 µg/mL)
- MIC S. epidermidis Biofilm (S. epidermidis biofilm; Furan analogues table): 5.7 µM (≈ 2.18 µg/mL)
Compound: O=C(Nc1ncc([N+](=O)[O-])s1)c1ccc(-c2cccc(C(F)(F)F)c2)o1 [VPC161197]

- MIC (E. coli biofilm; Escherichia coli; read-out: MIC (μM) E. coli Biofilm): 56.7 µM (≈ 16 µg/mL)
- MIC (E. coli; Escherichia coli, broth dilution, LB medium, 24 h, read-out: MIC (μM) E. coli Plank): 113 µM (≈ 32 µg/mL)
- MIC (MRSA; Staphylococcus aureus, MRSA, broth dilution, Trypticase Soy, 24 h, read-out: MIC (μM) MRSA): 56.7 µM (≈ 16 µg/mL)
- MIC (C. jejuni; Campylobacter jejuni, broth dilution, Brain Heart Infusion, 24 h, read-out: MIC (μM) C. jejuni): 21.3 µM (≈ 6.01 µg/mL)
- MIC (H. pylori; Helicobacter pylori, broth dilution, Brain Heart Infusion, 24 h, read-out: MIC (μM) H. pylori): 0.9 µM (≈ 0.254 µg/mL)
- MIC (S. epidermidis; Staphylococcus epidermidis, broth dilution, Trypticase Soy, 24 h, read-out: MIC (μM) S. epidermidis Plank): 28.3 µM (≈ 7.99 µg/mL)
- MIC (μM) S. epidermidis Biofilm (S. epidermidis biofilm): 28.3 µM (≈ 7.99 µg/mL)
Compound: O=C(Nc1ccc(F)cc1)Nc1ncc([N+](=O)[O-])s1 [VPC161267]

Compound: O=C(CCCC(=O)Nc1ncc([N+](=O)[O-])s1)Nc1ncc([N+](=O)[O-])s1 [VPC161276, N^1,N^5-Bis(5-nitrothiazol-2-yl)glutaramide]
- MIC (E. coli biofilm; Escherichia coli, read-out: MIC (μM) E. coli Biofilm): 82.8 µM (≈ 32 µg/mL)
- MIC (E. coli; Escherichia coli, 24 h, read-out: MIC (μM) E. coli Plank): 82.8 µM (≈ 32 µg/mL)
- MIC (MRSA; Staphylococcus aureus, MRSA, 24 h, read-out: MIC (μM) MRSA): 82.8 µM (≈ 32 µg/mL)
- MIC (C. jejuni; Campylobacter jejuni, 24 h, read-out: MIC (μM) C. jejuni): 31.1 µM (≈ 12 µg/mL)
- MIC (H. pylori; Helicobacter pylori, 24 h, read-out: MIC (μM) H. pylori): 5.2 µM (≈ 2.01 µg/mL)
- MIC (S. epidermidis; Staphylococcus epidermidis, 24 h, read-out: MIC (μM) S. epidermidis Plank): 82.8 µM (≈ 32 µg/mL)
- MIC (μM) S. epidermidis Biofilm (S. epidermidis biofilm): 1.3 µM (≈ 0.502 µg/mL)

- MIC (E. coli biofilm; biofilm; read-out: MIC (μM) E. coli Biofilm): 77.6 µM (≈ 32 µg/mL)
- MIC (E. coli; broth dilution, LB medium, 24 h, read-out: MIC (μM) E. coli Plank): 77.6 µM (≈ 32 µg/mL)
- MIC (MRSA; broth dilution, Trypticase Soy, 24 h, read-out: MIC (μM) MRSA): 77.6 µM (≈ 32 µg/mL)
- MIC (C. jejuni; broth dilution, Brain Heart Infusion, 24 h, read-out: MIC (μM) C. jejuni): 29.1 µM (≈ 12 µg/mL)
- MIC (H. pylori; broth dilution, Brain Heart Infusion, 24 h, read-out: MIC (μM) H. pylori): 1.8 µM (≈ 0.742 µg/mL)
- MIC (S. epidermidis; broth dilution, Trypticase Soy, 24 h, read-out: MIC (μM) S. epidermidis Plank): 77.6 µM (≈ 32 µg/mL)
- MIC (μM) S. epidermidis Biofilm (S. epidermidis biofilm): 2.4 µM (≈ 0.99 µg/mL)
Compound: Cc1ncc([N+](=O)[O-])n1CCOC(=O)CCCC(=O)Nc1ncc([N+](=O)[O-])s1 [VPC161277]

Compound: O=C(Nc1ncc([N+](=O)[O-])s1)c1ncc([N+](=O)[O-])s1 [VPC161280]
- MIC (E. coli biofilm; biofilm; Thiophene analogues table; read-out: MIC E. coli Biofilm): 3.3 µM (≈ 0.994 µg/mL)
- MIC (E. coli; planktonic, Thiophene analogues table, read-out: MIC E. coli Plank): 39.8 µM (≈ 12 µg/mL)
- MIC (MRSA; Thiophene analogues table, read-out: MIC MRSA): 53.1 µM (≈ 16 µg/mL)
- MIC (C. jejuni; Thiophene analogues table, read-out: MIC C. jejuni): 13.3 µM (≈ 4.01 µg/mL)
- MIC (H. pylori; Thiophene analogues table, read-out: MIC H. pylori): 6.6 µM (≈ 1.99 µg/mL)
- MIC (S. epidermidis; planktonic, Thiophene analogues table, read-out: MIC S. epidermidis Plank): 5.0 µM (≈ 1.51 µg/mL)
- MIC S. epidermidis Biofilm (S. epidermidis biofilm; Thiophene analogues table): 6.6 µM (≈ 1.99 µg/mL)

- MIC (E. coli biofilm; [1]): 0.4 µM (≈ 0.127 µg/mL)
- MIC (E. coli; [2]): 101 µM (≈ 32 µg/mL)
- MIC (MRSA; [3]): 6.3 µM (≈ 2 µg/mL)
- MIC (C. jejuni; [4]): 12.6 µM (≈ 4.01 µg/mL)
- MIC (H. pylori; [5]): 1.6 µM (≈ 0.509 µg/mL)
- MIC (S. epidermidis; [6]): 25.1 µM (≈ 7.98 µg/mL)
- MIC S. epidermidis Biofilm (S. epidermidis biofilm; Furan analogues table): 50.3 µM (≈ 16 µg/mL)
Compound: O=C(Nc1ncc([N+](=O)[O-])s1)c1ccc(Br)o1 [VPC161281, 5-Bromo-N-(5-nitrothiazol-2-yl)furan-2-carboxamide]
- Disk Diff (%) C. difficile (C. difficile; Furan analogues table): 92%

- MIC (E. coli biofilm; Escherichia coli; biofilm; Thiophene analogues table; read-out: MIC E. coli Biofilm): 0.1 µM (≈ 0.0334 µg/mL)
- MIC (E. coli; Escherichia coli, planktonic, Thiophene analogues table, read-out: MIC E. coli Plank): 95.8 µM (≈ 32 µg/mL)
- MIC (MRSA; Staphylococcus aureus, MRSA, Thiophene analogues table, read-out: MIC MRSA): 4.5 µM (≈ 1.5 µg/mL)
- MIC (C. jejuni; Campylobacter jejuni, Thiophene analogues table, read-out: MIC C. jejuni): 9.9 µM (≈ 3.31 µg/mL)
- MIC (H. pylori; Helicobacter pylori, Thiophene analogues table, read-out: MIC H. pylori): 3 µM (≈ 1 µg/mL)
- MIC (S. epidermidis; Staphylococcus epidermidis, planktonic, Thiophene analogues table, read-out: MIC S. epidermidis Plank): 23.9 µM (≈ 7.99 µg/mL)
- MIC S. epidermidis Biofilm (S. epidermidis biofilm; Thiophene analogues table): 47.9 µM (≈ 16 µg/mL)
Compound: O=C(Nc1ncc([N+](=O)[O-])s1)c1ccc(Br)s1 [VPC161282, 5-Bromo-N-(5-nitrothiazol-2-yl)thiophene-2-carboxamide]
- Disk Diff (%) C. difficile (C. difficile; Thiophene analogues table): 90%
